According to patent US20210163976A1, “GENETICALLY ALTERED PLANTS EXPRESSING HETEROLOGOUS RECEPTORS THAT RECOGNIZE LIPO-CHITOOLIGOSACCHARIDES” (Aarhus Universitet, priority 2018, published 2021):
Entries after “also recorded” stand apart in the source; their conditions may differ.

Key:
[1] = biological target: T1, Medicago truncatula NFP ectodomain (NFP-ECD, residues 28-246), wild type, SEQ ID NO: 1 (Medicago truncatula, UniProt Q0GXS4); assay: Biolayer interferometry (BLI) binding of NFP / NFP-ECD to immobilized LCO and CO ligands; conditions: for Binding of mutated LCOs to NFP (in words): ligand binding tests, FIG. 3B
T1 construct: The Medicago truncatula NFP ectodomain (residues 28-246); AcMNPV gp67 signal peptide (replaces native signal peptide 1-27) (N); hexa-histidine tag (C); made in house; host or cells: Sf9 cells (Spodoptera frugiperda), baculovirus
Protocol: (§1) Expression and purification of Medicago NFP ectodomain: The Medicago truncatula NFP ectodomain (residues 28-246) was codon-optimized for insect cell expression (Genscript, Piscataway, USA) and cloned into the pOET4 baculovirus transfer vector (Oxford Expression Technologies). The native NFP signal peptide (residues 1-27, predicted by SignalP 4.1) was replaced with the AcMNPV gp67 signal peptide to facilitate secretion and a hexa-histidine tag was added to the C-terminus. Point mutants of NFP were engineered using site-directed mutagenesis. Recombinant baculoviruses were produced in Sf9 cells (Spodoptera frugiperda) using the FlashBac Gold kit (Oxford Expression technologies) according to the manufacturer's instructions with Lipofectin (ThermoFisher Scientific) as a transfection reagent. Protein expression was performed as follows. Suspension-cultured Sf9 cells were maintained with shaking at 299 K in serum-free MAX-XP (BD-Biosciences, discontinued) or HyClone SFX (GE Healthcare) medium supplemented with 1% Pen-Strep (10000 U/ml, Life technologies) and 1% CD lipid concentrate (Gibco). Protein expression was induced by adding recombinant passage 3 virus once the Sf9 cells reached a cell density of 1.0*10^7^6 cells/ml. After 5-7 days of expression, medium supernatant containing NFP ectodomains was harvested by centrifugation. This was followed by an overnight dialysis step against 50 mM Tris-HCl pH 8, 200 mM NaCl at 277 K. The NFP ectodomain was enriched by two subsequent steps of Ni-IMAC purification (HisTrap excel/HisTrap HP, both GE Healthcare). For crystallography experiments, N-glycans were removed using the endoglycosidase PNGase F (1:15 (w/w), room temperature, overnight). As a final purification step, NFP ectodomain was purified by SEC on a Superdex 200 10/300 or HiLoad Superdex 200 16/600 (both GE Healthcare) in phosphate buffered saline at pH 7.2 supplemented to a total of 500 mM NaCl (for binding assays) or 50 mM Tris-HCl, 200 mM NaCl (for crystallography). NFP ectodomain elutes as a single, homogeneous peak corresponding to a monomer. Point mutated versions of NFP were expressed and purified following the same protocol.
(§2) Biolayer interferometry (BLI): Binding of NFP and mutated versions of NFP to ligands was measured on an Octet RED 96 system (Pall ForteBio). The ligands used were LCO-IV (from S. meliloti), LCO-V (from S. meliloti), LCO-V (from M. loti), and C06 (from M. loti). S. meliloti LCO consists of a tetrameric/pentameric N-acetylglucosamine backbone that is 0-sulfated on the reducing terminal residue, 0-acetylated on the non-reducing terminal residue, and mono-N-acylated by unsaturated C16 acyl groups. M. loti LCO is a pentameric N-acetylglucosamine with a cis-vaccenic acid and a carbamoyl group at the non-reducing terminal residue together with a 2,4-O-acetylfucose at the reducing terminal residue. Biotinylated ligand conjugates were immobilized on streptavidin biosensors (kinetic quality, Pall ForteBio) at a concentration of 125-250 nM for 5 minutes. The binding assays using the S. meliloti ligands (LCO-IV and LCO-V) were replicated seven times, while the binding assays using the M loti ligands (LCO-V and C06) were replicated six times. Data analysis was performed in GraphPad Prism 6 software (GraphPad Software, Inc.). Equilibrium dissociation constants derived from the steady-state were determined by applying a non-linear regression (one site, specific binding) to the response at equilibrium plotted against the protein concentration. Kinetic parameters were determined by non-linear regression (association followed by dissociation) on the subtracted data.
(§3) Mutated lipochitooligosaccharide (LCO) ligands: S. meliloti LCO consists of a tetrameric/pentameric N-acetylglucosamine backbone that is O-sulfated on the reducing terminal residue, O-acetylated on the non-reducing terminal residue, and mono-N-acylated by unsaturated C16 acyl groups. […]

[2] = biological target: T2, Medicago NFP ectodomain (NFP-ECD, WT) (Medicago truncatula, UniProt Q0GXS4); assay: Biolayer interferometry (BLI) binding of NFP-ECD to immobilized biotinylated ligands; conditions: for binding to NFP of mutated LCOs: FIG. 3B, Example 4
T2 construct: The Medicago truncatula NFP ectodomain (residues 28-246) was codon-optimized; AcMNPV gp67 signal peptide (replaces native signal peptide 1-27) (N); made in house; host or cells: Sf9 (Spodoptera frugiperda), baculovirus, secreted into medium
T2 sequence (Q0GXS4 28-246): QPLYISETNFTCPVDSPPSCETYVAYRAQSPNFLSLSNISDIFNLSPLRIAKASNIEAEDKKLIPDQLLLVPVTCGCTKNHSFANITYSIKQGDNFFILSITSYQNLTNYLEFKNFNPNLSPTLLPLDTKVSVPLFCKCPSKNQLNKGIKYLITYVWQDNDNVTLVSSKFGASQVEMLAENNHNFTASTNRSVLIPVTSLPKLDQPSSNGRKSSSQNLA
Protocol: as §1, §2, §3

[3] = biological target: T1, Medicago truncatula NFP ectodomain (NFP-ECD, residues 28-246), wild type, SEQ ID NO: 1; assay: Microscale thermophoresis (MST) binding of NFP to carbohydrate ligands; conditions: read-out: Dissociation constant (Kd)
Protocol: as §1, with “Point mutated versions of NFP were expressed and purified following the same protocol.” left out

For `CC(=O)N[C@H]1[C@H](O[C@H]2[C@H](O)[C@@H](NC(C)=O)[C@H](O[C@H]3[C@H](O)[C@@H](NC(C)=O)C(O)O[C@@H]3CO)O[C@@H]2CO)O[C@H](CO)[C@@H](O[C@@H]2O[C@H](CO)[C@@H](O[C@@H]3O[C@H](CO)[C@@H](O[C@@H]4O[C@H](CO)[C@@H](O)[C@H](O)[C@H]4NC(C)=O)[C@H](O)[C@H]3NC(C)=O)[C@H](O)[C@H]2NC(C)=O)[C@@H]1O` (stereo partly shown) [M. loti C06], the “Binding to NFP (in words)” value ([1]; BLI, FIG. 2B, six replicates) was “neither was NFP binding; also recorded: does not bind” and the “NFP binding (BLI)” value ([2]; BLI, FIG. 2B, six replicates) was “not detected; also recorded: does not bind”.

With `CCCCCC/C=C\CCCCCCCCCC(=O)N[C@H]1[C@H](O[C@H]2[C@H](O)[C@@H](NC(C)=O)[C@H](O[C@H]3[C@H](O)[C@@H](NC(C)=O)[C@H](O[C@H]4[C@H](O)[C@@H](NC(C)=O)C(O)O[C@@H]4COS(=O)(=O)O)O[C@@H]3CO)O[C@@H]2CO)O[C@H](COC(C)=O)[C@@H](O)[C@@H]1O` (stereo partly shown) [nodFE-LCO-IV] the “Binding to NFP-ECD (in words)” value ([1]; further BLI assays, FIGS. 15B-15E, analyte 1.56-100 μM) was “no significant binding”, the “Binding of mutated LCOs to NFP (in words)” value [1] was “reduced NFP binding” and the “binding to NFP of mutated LCOs” value [2] was “reduced NFP binding”. The “NFP-ECD binding (BLI)” value ([2]; further BLI assays, FIGS. 15B-15E) was “no significant binding”.

Compound `CC(=O)N[C@H]1[C@H](O[C@H]2[C@H](O)[C@@H](NC(C)=O)C(O)O[C@@H]2CO)O[C@H](CO)[C@@H](O[C@@H]2O[C@H](CO)[C@@H](O[C@@H]3O[C@H](CO)[C@@H](O)[C@H](O)[C@H]3NC(C)=O)[C@H](O)[C@H]2NC(C)=O)[C@@H]1O` (stereo partly shown) [CO4] has a Kd [3] of 150 µM.

With `CCCCCC/C=C\CCCCC/C=C/C(=O)N[C@H]1[C@H](O[C@H]2[C@H](O)[C@@H](NC(C)=O)[C@H](O[C@H]3[C@H](O)[C@@H](NC(C)=O)[C@H](O[C@H]4[C@H](O)[C@@H](NC(C)=O)C(O)O[C@@H]4COS(=O)(=O)O)O[C@@H]3CO)O[C@@H]2CO)O[C@H](CO)[C@@H](O)[C@@H]1O` (stereo partly shown) [nodL-LCO-IV] the “Binding of mutated LCOs to NFP (in words)” value [1] was “Dramatically reduced binding”, the “reduction of binding to NFP-ECD compared to wild type S. meliloti LCO-IV” value ([2]; BLI, FIGS. 15D-15E) was “more than 10 fold” and the “binding to NFP of mutated LCOs” value [2] was “Dramatically reduced binding”.
